The source of these data is patent US10092657B2, “Opsonized β-glucan preparations and methods” (Biothera, Inc., priority 2011, dated 2018).

The subject of test [1] is human neutrophils. Kind of test: Binding of PGG β-glucan after serum pre-treatment, neutrophils. It counts as cell-based. To be noted: 200 μg/mL; 10% HI serum; two hours at 37° C. The protocol:
(§1) PGG β-glucan at concentration 60-80 mg/mL was incubated with human serum at 1:10 volume ratio for 30 minutes in a 37° C. water bath. The serum-pretreated PGG β-glucan was added to neutrophils at 200 μg/mL or to PBMC at 100 μg/mL resuspended in RPM1 containing either 10% regular autologous serum or 10% HI serum at indicated time and temperature of incubation. Binding was then determined as described previously.
(§2) To determine the role of complement proteins in binding, experiments were performed as described above except for using serum containing 10% HI, compstatin-treated or methylamine (MA)-treated, EGTA- or EGTA+MgCl2 (MgEGTA)-treated, or factor D-blocked serum. Heat-inactivated (HI) serum was prepared by incubating serum in a 56° C. water bath for 30 minutes. […] Treatment of serum with methylamine (MA) was done by incubating serum with 0.67% of methylamine for 2.5 hours at 37° C., followed by three washes with DPBS using Amicon centrifugal filter unit with a 3K MW cut-off (Millipore, Billerica, Mass.). DPBS-treated serum was prepared in the same manner and used as control serum for MA-treated serum. For blocking of factor D in the serum, 166-32 at concentration 20 μg/mL was incubated with serum on ice for 30 minutes, and then used for binding studies. […]

For test [2], the system named is human neutrophils. Kind of test: Binding of PGG β-glucan to human neutrophils (BfD IV staining, flow cytometry). It counts as cell-based. On the procedure:
(§3) Enriched neutrophils or PBMC were resuspended at 1×10^6 cells/mL in RPMI 1640 supplemented with 10% serum. PGG β-glucan at hexose concentrations 100 μg/mL, 200 μg/mL, or 400 μg/mL were added to neutrophils or PBMC and incubated in a 37° C., 5% CO2 humidified incubator for two hours. After incubation, cells were washed twice with FACS buffer (HBSS supplemented with 1% FBS and 0.1% sodium azide) to remove any unbound β-glucan, and subsequently treated with Fc block (Miltenyi Biotec, Auburn, Calif.). […] Cells were then incubated with FITC-conjugated F(ab′)2 goat anti-mouse IgM for 30 minutes at 4° C. and washed once with cold FACS buffer before fixing with 1% paraformaldehyde. In early optimization experiments, neutrophils, monocytes, and T cells were identified by staining with fluorescently labeled anti-CD 15, anti-CD 14, or anti-CD3 Abs, respectively. Events were collected on a LSRII flow cytometer (BD Biosciences, San Jose, Calif.) and analysis was performed using FLOWJO (Tree Star, Ashland, Oreg.). […] Surface binding of DTAF-conjugated β-glucan was subsequently assessed by flow cytometric analysis. […] The experiments to determine binding of PGG β-glucan at 200 μg/mL to neutrophils or at 100 μg/mL to PBMC were performed as described above with the following changes. For determining serum dependency, PGG β-glucan was incubated with neutrophils or PBMC resuspended in RPMI 1640 containing 2%, 5%, or 10% autologous serum at 37° C. for two hours. For time-course experiments, PGG β-glucan at indicated concentrations was incubated with cells resuspended in 10% autologous serum at 37° C. for 10 minutes, 20 minutes, 60 minutes, or 120 minutes. For temperature dependency experiments, PGG β-glucan at indicated concentrations was incubated with cells resuspended in 10% autologous serum for two hours at 4° C., room temperature, or 37° C.
(In general: Flow cytometry measures light scatter and fluorescence of single cells or particles in a stream.)

In another test the test system is sC5b-9 complex. Kind of test: Measurement of fluid-phase SC5b-9 complex formation in the serum. It counts as biochemical, human. The protocol:
The MicroVue SC5b-9 EIA kit was used to measure activation of the classical and alternative pathways of complement according to the vendor's instruction (Quidel Corp., San Diego, Calif.). Briefly, the serum, untreated or treated was mixed with PBS, Ab-sensitized sheep RBC (SRBC), or 20 units of CVF and added to plate wells pre-coated with anti-sC5b-9 monoclonal antibody. The plate was incubated at 37° C. for 60 minutes, followed by five washes with the provided wash buffer. The plate was then incubated with the provided SC5b-9 Plus Conjugate, which contained horseradish peroxidase-conjugated Ab specific for sC5b-9 at room temperature for 30 minutes. The plate was washed five times, incubated with the substrate for 15 minutes at room temperature to initiate the enzymatic reaction and subsequently quenched with the stop solution. OD450 Was measured using the spectrophotometer SpectraMAX 250. The concentration of fluid phase sC5b-9 present in the samples was determined from the standard curve generated with the provided sC5b-9 standards.

The next test has as its target T1, iC3b (Homo sapiens, UniProt P01024).
T1 construct: from tissue
Kind of test: ELISA for iC3b deposition on immobilized PGG β-glucan. The class given is binding. The conditions noted are these: 300 μg/mL immobilized. The protocol:
PGG β-glucan or dextran was immobilized on wells of a 96-well polystyrene plate (COSTAR, Coming, Inc., Lowell, Mass.) by drying the glucans at 50° C. followed by UV cross-linking. The glucan-coated plate was first blocked with 1% BSA before incubation with untreated serum or serum undergone various treatments as described in binding studies, diluted 1:2 with wash buffer (PBS/0.05% Tween-20) for 30 minutes at 37° C. After washing the serum from the plate, the bound iC3b was probed using the anti-iC3b monoclonal antibody followed by biotin-labeled goat anti-mouse IgG Ab. The amount of immobilized biotin-labeled antibody was determined using streptavidin peroxidase and TMB substrate solution (KPL, Gaithersburg, Md.). OD450 of each well was measured with the spectrophotometer SpectraMAX 250 (Molecular Devices, Sunnyvale, Calif.). Fold change was calculated as OD450 of wells containing immobilized β-glucan divided by OD450 of wells containing no β-glucan, both incubated in the presence of treated or untreated serum.
(In general: An ELISA detects its analyte on a solid surface through an enzyme-linked reagent.)

Test [3] deals with human monocytes. Kind of test: Binding of PGG β-glucan after serum pre-treatment, monocytes. The class given is cell-based. To be noted: 100 μg/mL; 10% HI serum; two hours at 37° C. On the procedure: as §1, §2
The test system of test [4] is human monocytes. Kind of test: Binding of PGG β-glucan to human monocytes within PBMC (BfD IV staining, flow cytometry). The class given is cell-based. On the procedure:
as §3

Where [5] appears, read: 2%, 5% or 10% autologous serum, 37° C., two hours.
The mark [6] stands for this setting: 10% autologous serum, 37° C., two hours.
Setting [7] is: 100, 200, 400 μg/mL, 10% autologous serum, 37° C., two hours.
[8] abbreviates: two hours at 4° C., room temperature or 37° C., 10% serum.

T1 sequence (P01024 749-1303 limits assumed): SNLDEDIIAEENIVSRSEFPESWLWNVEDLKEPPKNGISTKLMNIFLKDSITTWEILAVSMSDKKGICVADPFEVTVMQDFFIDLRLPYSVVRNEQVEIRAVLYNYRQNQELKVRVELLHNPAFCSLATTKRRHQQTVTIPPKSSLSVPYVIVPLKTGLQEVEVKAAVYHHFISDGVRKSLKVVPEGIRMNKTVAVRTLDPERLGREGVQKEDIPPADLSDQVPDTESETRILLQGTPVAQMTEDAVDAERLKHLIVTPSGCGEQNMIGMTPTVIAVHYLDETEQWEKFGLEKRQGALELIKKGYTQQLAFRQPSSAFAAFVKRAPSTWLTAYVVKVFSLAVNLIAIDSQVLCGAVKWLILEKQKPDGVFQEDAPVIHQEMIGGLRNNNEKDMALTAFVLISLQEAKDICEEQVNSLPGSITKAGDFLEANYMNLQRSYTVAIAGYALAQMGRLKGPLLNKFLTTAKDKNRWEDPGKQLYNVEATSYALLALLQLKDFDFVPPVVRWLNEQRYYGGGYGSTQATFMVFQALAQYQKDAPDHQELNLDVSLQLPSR
T1 sequence (P01024 23-667 partner limits assumed): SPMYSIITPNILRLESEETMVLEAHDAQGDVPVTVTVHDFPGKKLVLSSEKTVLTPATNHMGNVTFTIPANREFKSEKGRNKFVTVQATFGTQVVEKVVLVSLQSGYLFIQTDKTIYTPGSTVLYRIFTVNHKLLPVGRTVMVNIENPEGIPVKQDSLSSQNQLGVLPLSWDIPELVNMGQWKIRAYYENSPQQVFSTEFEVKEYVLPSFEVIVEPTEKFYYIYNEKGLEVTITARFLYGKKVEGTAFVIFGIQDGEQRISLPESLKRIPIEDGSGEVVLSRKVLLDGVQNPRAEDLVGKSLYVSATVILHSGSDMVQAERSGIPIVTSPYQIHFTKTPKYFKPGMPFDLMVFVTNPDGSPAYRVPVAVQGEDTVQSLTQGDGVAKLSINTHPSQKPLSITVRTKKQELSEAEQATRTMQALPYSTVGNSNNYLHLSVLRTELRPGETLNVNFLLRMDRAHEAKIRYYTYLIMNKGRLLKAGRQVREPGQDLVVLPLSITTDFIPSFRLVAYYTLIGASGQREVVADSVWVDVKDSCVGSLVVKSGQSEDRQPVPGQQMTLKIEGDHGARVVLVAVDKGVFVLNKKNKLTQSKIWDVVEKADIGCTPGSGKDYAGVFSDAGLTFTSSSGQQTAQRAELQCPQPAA
T1 sequence (P01024 1321-1663 partner limits assumed): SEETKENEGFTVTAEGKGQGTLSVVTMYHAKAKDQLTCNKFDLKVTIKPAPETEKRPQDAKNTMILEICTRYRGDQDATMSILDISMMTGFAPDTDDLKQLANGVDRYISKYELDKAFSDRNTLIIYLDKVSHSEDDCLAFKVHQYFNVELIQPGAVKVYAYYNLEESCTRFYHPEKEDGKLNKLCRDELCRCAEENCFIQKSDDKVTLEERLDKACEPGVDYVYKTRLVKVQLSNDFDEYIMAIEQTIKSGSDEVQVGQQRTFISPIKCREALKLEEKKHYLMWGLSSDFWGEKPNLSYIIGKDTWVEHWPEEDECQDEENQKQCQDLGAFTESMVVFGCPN

As for “β(1,6)-[poly-1,3)-D-glucopyranosyl]-poly-β(1,3)-D-glucopyranose [PGG β-glucan]”, the “Extent of rescued binding to cells in HI serum (MFI, percentage of BfD IV positive cells)” value with human neutrophils [1] and in the test with human monocytes [3] was “minimal” each time. Also, the “Minimum concentration of β-glucan detected on the cells by the BfD IV detection system” value with human neutrophils [2] and in the test with human monocytes [4] was 100 µg/mL in each case. The “Incubation time of maximal binding” value with human neutrophils [2] (200 μg/mL, 10% serum, 37° C.) fell in the range of 30 to 60 min; with human monocytes [4] (100 μg/mL, 10% serum, 37° C.) it was 60 to 120 min. Moreover, the “Percentage of serum at which maximal binding occurred” value in the test on human neutrophils [2] (setting [5]) and with human monocytes [4] (setting [5]) was 10% each time. Further, the “Percentage of serum at which minimum binding occurred” value in the test on human neutrophils [2] (setting [5]) and in the test with human monocytes [4] (setting [5]) was 2% each time. For the same substance, the “Concentration at which percentage of BfD IV positive cells reached a plateau” value in the test on human neutrophils [2] (setting [6]) and in the test on human monocytes [4] (setting [6]) was 200 µg/mL in each case. Also, the “Binding (MFI and percentage of BfD IV positive cells)” value in the test on human neutrophils [2] (setting [7]) is “bound to both neutrophils and monocytes”; with human monocytes [4] (setting [7]) it was “bound to both neutrophils and monocytes”. Besides, the “Incubation temperature of maximal binding” value with human neutrophils [2] (setting [8]) and with human monocytes [4] (setting [8]) was 37 °C in each case. Further, the “Formation of terminal complement complexes (fluid phase MAC) in serum treated with the glucan” value in the test with sC5b-9 complex is reported as “did not activate formation of terminal complement complexes”. Moreover, the “Fold increase of iC3b detected on immobilized glucan compared to background” value at iC3b (HI serum 30 minutes at 37° C.) was “significantly less iC3b detected”; on iC3b (regular serum 30 minutes at 37° C.) it was “significantly higher”.
